21 compounds from patent US20160326142A1, “PYRAZOLE CARBOXAMIDE COMPOUNDS, COMPOSITIONS AND METHODS OF USE” (Genentech, Inc., priority 2012, published 2016) can be followed below.

The experiment has as its target T1, ITK (Homo sapiens, UniProt Q08881).
T1 construct: purchased Invitrogen PV3875
T1 sequence (Q08881 1-620): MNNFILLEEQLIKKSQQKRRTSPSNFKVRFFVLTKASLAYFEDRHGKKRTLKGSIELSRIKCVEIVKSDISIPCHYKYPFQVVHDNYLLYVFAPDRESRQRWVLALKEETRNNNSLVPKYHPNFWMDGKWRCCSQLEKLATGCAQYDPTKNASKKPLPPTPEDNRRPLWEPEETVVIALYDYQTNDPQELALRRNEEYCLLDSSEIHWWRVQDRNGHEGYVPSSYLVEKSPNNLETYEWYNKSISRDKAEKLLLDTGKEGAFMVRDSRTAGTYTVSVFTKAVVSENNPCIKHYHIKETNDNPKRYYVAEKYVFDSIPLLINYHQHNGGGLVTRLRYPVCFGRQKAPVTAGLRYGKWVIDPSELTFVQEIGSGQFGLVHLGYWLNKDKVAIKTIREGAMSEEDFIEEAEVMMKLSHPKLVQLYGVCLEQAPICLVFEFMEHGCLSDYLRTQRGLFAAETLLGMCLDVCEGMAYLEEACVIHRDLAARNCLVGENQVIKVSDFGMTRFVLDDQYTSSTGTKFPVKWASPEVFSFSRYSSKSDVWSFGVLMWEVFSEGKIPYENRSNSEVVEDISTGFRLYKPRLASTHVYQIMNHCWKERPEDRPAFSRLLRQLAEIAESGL
Nature of the experiment: ITK enzyme assay (Caliper or LCMS peptide phosphorylation). In kind it is biochemical. The settings on record: purified ITK (Invitrogen PV3875), 20 μM ATP, Ki by Morrison's quadratic equation. In a few lines:
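Purified human ITK peptide phosphorylation, quenched with EDTA (50 mM final) for Caliper LabChip separation or TCA (5% v/v final) for UPLC-MS/MS MRM quantification. Ki derived via Morrison tight-binding equation, corrected for competitive inhibition using ATP concentration relative to Km,app.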
`CC1CC(C(c2ccccc2)n2cc(NC(=O)c3n[nH]c4c3CCC(C)(C)C4)cn2)CCS1(=O)=O` (single isomer, unassigned) [Example 139b, 6,6-dimethyl-N-(1-((2-methyl-1,1-dioxidotetrahydro-2H-thiopyran-4-yl)(phenyl)methyl)-1H-pyrazol-4-yl)-4,5,6,7-tetrahydro-1H-indazole-3-carboxamide] returned a Ki of 0.7 nM. `CC1(C)CCc2c(C(=O)Nc3cnn(C(CCN)c4ccccc4)c3)n[nH]c2C1` (single isomer, unassigned) [Example 42b, N-(1-(3-amino-1-phenylpropyl)-1H-pyrazol-4-yl)-6,6-dimethyl-4,5,6,7-tetrahydro-1H-indazole-3-carboxamide] had a Ki of 0.9 nM. As to `CC(c1ccncc1)n1cc(NC(=O)c2n[nH]c3c2CCC(C)(C)C3)cn1` (single isomer, unassigned) [Example 107b, 6,6-dimethyl-N-(1-(1-(pyridin-4-yl)ethyl)-1H-pyrazol-4-yl)-4,5,6,7-tetrahydro-1H-indazole-3-carboxamide], the Ki is 14 nM. Next, `CC(=O)N1CC(C(c2ccccc2)n2cc(NC(=O)c3n[nH]c4c3CCC(C)(C)C4)cn2)C1` (single isomer, unassigned) [Example 37a, N-(1-((1-acetylazetidin-3-yl)(phenyl)methyl)-1H-pyrazol-4-yl)-6,6-dimethyl-4,5,6,7-tetrahydro-1H-indazole-3-carboxamide]: 14 nM.

`CCC(c1cnn(CC)c1)n1cc(NC(=O)c2n[nH]c3c2CCC(C)(C)C3)cn1` (single isomer, unassigned) [Example 99a, N-(1-(1-(1-ethyl-1H-pyrazol-4-yl)propyl)-1H-pyrazol-4-yl)-6,6-dimethyl-4,5,6,7-tetrahydro-1H-indazole-3-carboxamide] had a Ki of 4 nM. Consider `CN(C)CCC(c1ccccc1)n1cc(NC(=O)c2n[nH]c3c2CCC2(COC2)C3)cn1` (single isomer, unassigned) [Example 15a, N-(1-(3-(dimethylamino)-1-phenylpropyl)-1H-pyrazol-4-yl)-1,4,5,7-tetrahydrospiro[indazole-6,3′-oxetane]-3-carboxamide], for which the affinity corresponds to a Ki of 11 nM. This Ki lies about 2.8-fold higher than the previous one. Next, `CC1(C)Cc2[nH]nc(C(=O)Nc3cnn(Cc4ccccc4)c3)c2C1` [Example 21, N-(1-benzyl-1H-pyrazol-4-yl)-5,5-dimethyl-1,4,5,6-tetrahydrocyclopenta[c]pyrazole-3-carb oxamide]: 7.4 nM; `CN(C)CCC(c1cccc(C(F)(F)F)c1)n1cc(NC(=O)c2n[nH]c3c2CCC(C)(C)C3)cn1` (single isomer, unassigned) [Example 30a, N-(1-(3-(dimethylamino)-1-(3-(trifluoromethyl)phenyl)propyl)-1H-pyrazol-4-yl)-6,6-dimethyl-4,5,6,7-tetrahydro-1H-indazole-3-carboxamide]: 2 nM; `CCC1(C)CCc2c(C(=O)Nc3cnn(Cc4ccccc4)c3)n[nH]c2C1` (single isomer, unassigned) [Example 56b, N-(1-benzyl-1H-pyrazol-4-yl)-6-ethyl-6-methyl-4,5,6,7-tetrahydro-1H-indazole-3-carboxamide]: 13 nM. On to `CC1(C)CCc2c(C(=O)Nc3cnn(C(c4ccccc4)C4CCN(S(C)(=O)=O)CC4)c3)n[nH]c2C1` (single isomer, unassigned) [Example 67b, 6,6-dimethyl-N-(1-((1-(methylsulfonyl)piperidin-4-yl)(phenyl)methyl)-1H-pyrazol-4-yl)-4,5,6,7-tetrahydro-1H-indazole-3-carboxamide], for which the Ki stood at 3 nM. `CNCCC(c1ccccc1)n1cc(NC(=O)c2n[nH]c3c2CCC(C)(C)C3)cn1` (single isomer, unassigned) [Example 39b, 6,6-dimethyl-N-(1-(3-(methylamino)-1-phenylpropyl)-1H-pyrazol-4-yl)-4,5,6,7-tetrahydro-1H-indazole-3-carboxamide] yielded a Ki of 6 nM. This Ki is about 2-fold higher than that of the compound before. Next, `CC1(C)CCc2c(C(=O)Nc3cnn(C(CO)c4ccccc4)c3)n[nH]c2C1` (single isomer, unassigned) [Example 53a, N-(1-(2-hydroxy-1-phenylethyl)-1H-pyrazol-4-yl)-6,6-dimethyl-4,5,6,7-tetrahydro-1H-indazole-3-carboxamide]: 5 nM. In the case of `Cn1ccnc1C(c1cccs1)n1cc(NC(=O)c2n[nH]c3c2CCC(C)(C)C3)cn1` (single isomer, unassigned) [Example 114b, 6,6-dimethyl-N-(1-((1-methyl-1H-imidazol-2-yl)(thiophen-2-yl)methyl)-1H-pyrazol-4-yl)-4,5,6,7-tetrahydro-H-indazole-3-carboxamide] it was 12 nM; in that of `C#CC1(C)CCc2c(C(=O)Nc3cnn(Cc4ccccc4)c3)n[nH]c2C1` (single isomer, unassigned) [Example 130a, N-(1-benzyl-1H-pyrazol-4-yl)-6-ethynyl-6-methyl-4,5,6,7-tetrahydro-1H-indazole-3-carboxamide], 25 nM. `CC12Cc3[nH]nc(C(=O)Nc4cnn(Cc5ccccc5)c4)c3C1C2` (single isomer, unassigned) [Example 150b, N-(1-benzyl-1H-pyrazol-4-yl)-4a-methyl-3b,4,4a,5-tetrahydro-1H-cyclopropa[3,4]cyclopent a[1,2-c]pyrazole-3-carboxamide] returned a Ki of 32 nM.

In turn, `CC1(C)CCc2c(C(=O)Nc3cnn(C(c4ccccc4)[C@@H]4CNCCO4)c3)n[nH]c2C1` (single isomer, unassigned) [Example 66b] registered a Ki of 1 nM. Next, `O=C1CCC2(CCc3c(C(=O)Nc4cnn(Cc5ccccc5)c4)n[nH]c3C2)N1` (single isomer, unassigned) [Example 148a, N-(1-benzyl-1H-pyrazol-4-yl)-5′-oxo-1,4,5,7-tetrahydrospiro[indazole-6,2′-pyrrolidine]-3-carboxamide]: more than 400 nM; `CN1CC(C(c2ccccc2)n2cc(NC(=O)c3n[nH]c4c3CCC(C)(C)C4)cn2)CN(C)C1=O` (single isomer, unassigned) [Example 129a, N-(1-((1,3-dimethyl-2-oxohexahydropyrimidin-5-yl)(phenyl)methyl)-1H-pyrazol-4-yl)-6,6-di methyl-4,5,6,7-tetrahydro-1H-indazole-3-carboxamide]: 0.7 nM; `CC1(C)CCc2c(C(=O)Nc3cnn(C(c4cccnc4)C4CCOCC4)c3)n[nH]c2C1` (single isomer, unassigned) [Example 88b, 6,6-dimethyl-N-(1-(pyridin-3-yl(tetrahydro-2H-pyran-4-yl)methyl)-1H-pyrazol-4-yl)-4,5,6,7-tetrahydro-1H-indazole-3-carboxamide]: 0.7 nM. In the case of `CC1(C)CCc2c(C(=O)Nc3cnn(C(c4ccccc4)C4CN(CCF)C4)c3)n[nH]c2C1` (stereo not drawn) [Example 75b, N-(1-((1-(2-fluoroethyl)azetidin-3-yl)(phenyl)methyl)-1H-pyrazol-4-yl)-6,6-dimethyl-4,5,6,7-tetrahydro-1H-indazole-3-carboxamide], the Ki amounted to 0.3 nM.

`CC1(C)CCc2c(C(=O)Nc3cnn(C(c4cccnc4)C4CC[S+]([O-])CC4)c3)n[nH]c2C1` (single isomer, unassigned) [Example 147c, 6,6-dimethyl-N-(1-((1-oxidotetrahydro-2H-thiopyran-4-yl)(pyridin-3-yl)methyl)-1H-pyrazol-4-yl)-4,5,6,7-tetrahydro-1H-indazole-3-carboxamide]: affinity was put at a Ki of 7 nM.

What is called Ki is a measure of affinity in units of concentration, obtained from inhibition or displacement. Read a high Ki as a looser hold on the target.
